Measured values taken from ChEMBL document CHEMBL6078677, “Discovery and optimization of tetrahydroacridine derivatives as a novel class of antibiotics against multidrug-resistant Gram-positive pathogens by targeting type I signal peptidase and disrupting bacterial membrane” (Eur J Med Chem, 2025).
pKd: −log10 of the molar value. ≈ marks a conversion by molar mass, not a printed value. Calls of active or inactive are those of the source. The calls are words filed in the database; no cut-off is given here.

Tests used:
Staphylococcus aureus [1] = test: Antimicrobial activity against Staphylococcus aureus ATCC 29213 assessed as inhibition of visible growth of bacteria incubated for 20 hrs by broth microdilution method; type: functional
Enterococcus faecium [2] = test: Antimicrobial activity against Enterococcus faecium QF31 harboring erythromycin resistance rRNA methylase B and chloramphenicol-florfenicol resistance methylase assessed as inhibition of visible growth of bacteria incubated for 20 hrs by broth microdilution method; type: functional
Staphylococcus aureus [3] = test: Antimicrobial activity against Staphylococcus aureus YZSA-15 harboring erythromycin resistance rRNA methylase C and vancomycin resistance locus assessed as inhibition of visible growth of bacteria incubated for 20 hrs by broth microdilution method; type: functional
Enterococcus faecium [4] = test: Antimicrobial activity against Enterococcus faecium HFY01 assessed as inhibition of visible growth of bacteria incubated for 20 hrs by broth microdilution method; type: functional
Enterococcus faecalis [5] = test: Antimicrobial activity against Enterococcus faecalis ES01 harboring erythromycin-resistance rRNA methylase B and vanB-type vancomycin-resistance locus assessed as inhibition of visible growth of bacteria incubated for 20 hrs by broth microdilution method; type: functional
Enterococcus faecalis [6] = test: Antimicrobial activity against Enterococcus faecalis J2 harboring erythromycin-resistance rRNA methylase B and oxazolidinone phenicol transferable resistance gene assessed as inhibition of visible growth of bacteria incubated for 20 hrs by broth microdilution method; type: functional
Streptococcus pyogenes = test: Antimicrobial activity against Streptococcus pyogenes DL02 harboring erythromycin-resistance rRNA methylase B assessed as inhibition of visible growth of bacteria incubated for 20 hrs by broth microdilution method; type: functional
Streptococcus agalactiae = test: Antimicrobial activity against Streptococcus agalactiae DL03 harboring erythromycin-resistance rRNA methylase B assessed as inhibition of visible growth of bacteria incubated for 20 hrs by broth microdilution method; type: functional
Pseudomonas aeruginosa = test: Antimicrobial activity against Pseudomonas aeruginosa PA01 assessed as inhibition of visible growth of bacteria incubated for 20 hrs by broth microdilution method; type: functional
Staphylococcus aureus [7] = test: Bactericidal activity against Staphylococcus aureus ATCC 29213 assessed as decrease in bacterial number measured within 12 hrs by time-kill kinetics assay; type: functional, organism-based
Staphylococcus aureus [8] = test: Bactericidal activity against Staphylococcus aureus ATCC 29213 assessed as bacterial eradication at 4 times of MIC measured after 24 hrs by time-kill kinetics assay relative to control; type: functional
Staphylococcus aureus [9] = test: Bactericidal activity against Staphylococcus aureus ATCC 29213 assessed as bacterial killing at 8 times of MIC measured within 12 hrs by time-kill kinetics assay; type: functional, organism-based
[10] = Cytotoxicity against human Caco-2 cells assessed as reduction in cell viability incubated for 48 hrs by CCK8 assay; type: toxicity, cell-based
[11] = Cytotoxicity against human HEp-2 cells assessed as cell viability at 4 times of MIC incubated for 48 hrs by CCK8 assay (reference value: 100 %); type: toxicity, cell-based; conditions: read-out: Activity
[12] = Cytotoxicity against human HEp-2 cells assessed as cell viability at 1 time of MIC incubated for 48 hrs by CCK8 assay (reference value: 100 %); type: toxicity, cell-based; conditions: read-out: Activity
[13] = Cytotoxicity against human Caco-2 cells assessed as cell viability at 16 times of MIC incubated for 48 hrs by CCK8 assay (reference value: 99.54 %); type: toxicity, cell-based; conditions: read-out: Activity
[14] = Cytotoxicity against human Caco-2 cells assessed as cell viability at 4 times of MIC incubated for 48 hrs by CCK8 assay (reference value: 99.54 %); type: toxicity, cell-based; conditions: read-out: Activity
[15] = Cytotoxicity against human Caco-2 cells assessed as cell viability at 2 times of MIC incubated for 48 hrs by CCK8 assay (reference value: 99.54 %); type: toxicity, cell-based; conditions: read-out: Activity
[16] = Cytotoxicity against human Caco-2 cells assessed as cell viability at 1 time of MIC incubated for 48 hrs by CCK8 assay (reference value: 99.54 %); type: toxicity, cell-based; conditions: read-out: Activity
[17] = Hemolytic activity in Kunming mouse erythrocytes measured after 1 hrs by absorbance based assay; type: toxicity, cell-based, Erythrocyte
[18] = Hemolytic activity in Kunming mouse erythrocytes assessed as hemolysis at 4 times of MIC measured after 1 hrs by absorbance based assay relative to control; type: toxicity, cell-based, Erythrocyte; conditions: read-out: Activity
[19] = Hemolytic activity in Kunming mouse erythrocytes assessed as hemolysis at 2 times of MIC measured after 1 hrs by absorbance based assay relative to control; type: toxicity, cell-based, Erythrocyte; conditions: read-out: Activity
[20] = Hemolytic activity in Kunming mouse erythrocytes assessed as hemolysis at 1 time of MIC measured after 1 hrs by absorbance based assay relative to control; type: toxicity, cell-based, Erythrocyte; conditions: read-out: Activity
[21] = Acute toxicity in ICR mouse model assessed as change in heart pathology at 25 to 100 mg/kg, IG administered for 7 days by H and E staining based analysis; type: organism-based; conditions: in vivo, po, 168 h, dose 25-100 mg/kg, time 7 day
[22] = Acute toxicity in ICR mouse model assessed as change in spleen pathology at 25 to 100 mg/kg, IG administered for 7 days by H and E staining based analysis; type: organism-based; conditions: in vivo, po, 168 h, dose 25-100 mg/kg, time 7 day
Signal peptidase I = Signal peptidase I (Escherichia coli K-12, UniProt P00803); test: Binding affinity to recombinant 6His-tagged Escherichia coli LepB (77 to 324 residues) extracted from Escherichia coli BL21 (DE3) cells assessed as dissociation constant by MST analysis
Sequence of Signal peptidase I (P00803 whole entry, the tested form may be a part): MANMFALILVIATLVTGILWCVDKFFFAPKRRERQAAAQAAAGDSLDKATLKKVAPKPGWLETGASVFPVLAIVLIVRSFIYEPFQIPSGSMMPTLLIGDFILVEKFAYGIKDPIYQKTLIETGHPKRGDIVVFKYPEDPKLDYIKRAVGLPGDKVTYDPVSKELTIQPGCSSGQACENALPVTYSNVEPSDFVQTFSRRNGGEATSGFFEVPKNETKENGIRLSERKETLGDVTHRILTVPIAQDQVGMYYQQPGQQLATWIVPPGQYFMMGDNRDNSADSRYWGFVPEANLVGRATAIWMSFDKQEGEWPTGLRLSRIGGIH

Cell membrane = test: Disruption of cell membrane integrity in Staphylococcus aureus ATCC 29213 assessed as appearance of shriveled surface at 0.5 to 2 times of MIC by scanning electron microscopic analysis; type: subcellular
Staphylococcus aureus [23] = test: Disruption of preformed biofilm in Staphylococcus aureus ATCC 29213 at 1 microg/ml measured after 72 hrs by crystal violet staining based analysis relative to control; type: functional; conditions: dose 1 µg/ml
Staphylococcus aureus [24] = test: Disruption of preformed biofilm in Staphylococcus aureus ATCC 29213 assessed as increase in red fluorescence at 0.5 to 2 times of MIC measured after 72 hrs by SYTO-9/PI staining based CLSM imaging analysis; type: functional, organism-based
Staphylococcus aureus [25] = test: Antibiofilm activity in Staphylococcus aureus ATCC 29213 assessed as reduction in biofilm formation at 0.5 to 2 times of MIC measured after 72 hrs by SEM analysis; type: functional, organism-based
[26] = Metabolic stability in human liver microsomes assessed as half-life at 100 uM preincubated for 5 mins followed by NADPH addition and measured upto 60 mins by LC-MS/MS analysis; type: ADME, Microsome; conditions: time < 65 min
[27] = Metabolic stability in rat liver microsomes assessed as intrinsic clearance at 100 uM preincubated for 5 mins followed by NADPH addition and measured upto 60 mins by LC-MS/MS analysis; type: ADME, Microsome; conditions: time < 65 min, read-out: CLH
[28] = Metabolic stability in human liver microsomes assessed as hepatic extraction ratio at 100 uM preincubated for 5 mins followed by NADPH addition and measured upto 60 mins by LC-MS/MS analysis; type: ADME, Microsome; conditions: time < 65 min, read-out: ERH
[29] = Metabolic stability in rat liver microsomes assessed as hepatic extraction ratio at 100 uM preincubated for 5 mins followed by NADPH addition and measured upto 60 mins by LC-MS/MS analysis; type: ADME, Microsome; conditions: time < 65 min, read-out: ERH
Staphylococcus aureus [30] = test: (§1) Antibacterial activity against methicillin-resistant Staphylococcus aureus YZSA-24 infected in cyclophosphamide-induced neutrophil depleted female ICR mouse model of skin infection assessed as log reduction in bacterial load at 2.5 %, TOP preadministered with cyclophosphamide for 5 days followed by bacterial administration and measured after 25 hrs of compound administration relative to vehicle group; type: functional
Staphylococcus aureus [31] = test: as §1, with “1” for “2.5”, “ampicillin” for “vehicle”; type: functional

For `CC1C/C(=C\c2ccc(-c3ccc(Cl)c(C(F)(F)F)c3)s2)c2nc3ccccc3c(C(=O)O)c2C1` (racemic), the MIC (Staphylococcus aureus [1]) was 1 µg/mL (≈ 1.95 µM), the MIC (Enterococcus faecium [2]) was 2 µg/mL (≈ 3.89 µM) and the MIC (Staphylococcus aureus [3]) was 1 µg/mL (≈ 1.95 µM). The MIC (Enterococcus faecium [4]) was 2 µg/mL (≈ 3.89 µM), the MIC (Enterococcus faecalis [5]) was 2 µg/mL (≈ 3.89 µM) and the MIC (Enterococcus faecalis [6]) was 2 µg/mL (≈ 3.89 µM). For the same compound, the MIC (Streptococcus pyogenes) was 16 µg/mL (≈ 31.1 µM), the MIC (Streptococcus agalactiae) was 32 µg/mL (≈ 62.3 µM) and the MIC (Pseudomonas aeruginosa) was greater than 128 µg/mL. The Activity (Staphylococcus aureus [7]) was “Dose-dependent-effect”, the Activity (Staphylococcus aureus [8]) was 100% and the Activity (Staphylococcus aureus [9]) was “Active”. It also gave a CC50 at 48 h [10] of 21.9 µg/mL (≈ 42.7 µM), a viability at 48 h, 4 times of MIC [11] of 91.4% and a viability at 48 h, 1 time of MIC [12] of 96.9%. For the same compound, the viability at 48 h, 16 times of MIC [13] was 61.7%, the viability at 48 h, 4 times of MIC [14] was 92.9% and the viability at 48 h, 2 times of MIC [15] was 96.6%. For the same compound, the viability at 48 h, 1 time of MIC [16] was 96.6%, the HC50 at 1 h [17] was 13.3 µg/mL and the hemolysis at 1 h, 4 times of MIC [18] was 0.65%. The hemolysis at 1 h, 2 times of MIC [19] was 0%, the hemolysis at 1 h, 1 time of MIC [20] was 0% and the Activity [21] was “Non-toxic”. The Activity [22] was “Non-toxic”, the pKd (Signal peptidase I) was 4.87 and the Activity (Cell membrane) was “Active”. The Activity (Staphylococcus aureus [23]) was roughly 50%, the Activity (Staphylococcus aureus [24]) was “Active” and the Activity (Staphylococcus aureus [25]) was “Active; Some Sections Appeared To Be Damaged And Broken”. It also gave a half-life at 100 µM [26] greater than 3.08 h, a microsomal CLint at 100 µM [27] of less than 7.5 µL/min/mg and a hepatic extraction ratio at 1 h, 100 µM [28] of less than 0.27. It also gave a hepatic extraction ratio at 1 h, 100 µM [29] of less than 0.21, an Activity (Staphylococcus aureus [30]) of 2.36 log10CFU/ml and an Activity (Staphylococcus aureus [31]) of 1.21 log10CFU/ml.
